“Also recorded” adds a separate entry of the source. The star is where a group is joined. Cbz = O=C(OCc1ccccc1)*; CH2F = FC*
Tests used:
4T1 cells [1] = assay: Lysis of 4T1 cells by activated NK cells treated with inhibitors; format: cell-based, mouse; details: E/T ratio 25 to 1
Experimental: (§1) The cytolytic activity of resting and activated NK cells was evaluated against 4T1 target cells. The activated NK cells were treated with inhibitors of Perforin maturation (concanamycin A), GraB (Z-AAD-FMK), PI3K (wortmannin), MEK1 kinase (PD98059), S6 kinase (rapamycin) and JNK (SP) to assess the role of cytotoxic granules. The E/T ratio was 25 to 1, and results shown are from one representative donor (out of three donors). […] 4T1 target cells were treated with Apo2L/TRAIL protein (100 ng/ml) or with activated NK cells (“Act NK”) for 30 minutes, 1 hour or 4 hours. The E/T ratio was 10:1. Extracts of the 4T1 cells were analysed by SDS-PAGE and immunoblot analysis for pro-caspase-3, cleaved caspase-3 and cleaved PARP.
For the cytotoxicity assays, target cells were labeled with 100 mCi ^51Cr for 1 hour at 37° C. and then washed 3 times before use. […] The cytotoxicity assays were performed in round bottom 96 well plates and the percent specific lysis was calculated as 100× (experimental cpm-spontaneous cpm)/(total cpm-spontaneous cpm). The role of Apo2L/TRAIL expressed by NK cells in the lysis of target cells was evaluated using anti-Apo2L/TRAIL mAbs (5C2 and 1D1, Genentech, Inc.). […]

4T1 cells [2] = assay: 51Cr release cytotoxicity assay, purified human NK cells on 4T1 target cells; format: cell-based, mouse; details: for Lysis of 4T1 cells by NK cells treated with TLR activating agent: NK cells treated for 18 hours with agent, 4 hour incubation, E:T 1:1 to 50:1
Experimental: 4T1 cells (a metastatic mammary carcinoma cell line derived from BALE/C mice, obtained from Fred Miller, Karmanos Cancer Institute) were assayed in an in vitro cytotoxicity assay to examine tumoricical effects of various Toll receptor (“TLR”) activators and NK cells. The 4T1 target cells were cultured in IDMEM medium supplemented with 10% FCS, glutamine and penicillin/streptomycin, labeled with 100 mCi ^51Cr for 1 hour at 37° C. and then washed three times with culture medium.
To prepare purified effector NK cells for the assay, PBMCs from healthy human donors were isolated by standard density-gradient centrifugation over Ficoll-Paque Plus (Pharmacia). CD3 positive cells were first depleted using anti-CD3 microbeads (obtained from Miltenyi), and then the NK cells were purified using anti-CD56 microbeads (Miltenyi). The purity of the NK cell preparation was 95% or higher as determined by staining with mouse anti-human CD56 PE and mouse anti-human CD14 PE conjugates (BD Biosciences). The isolated cells were cultured in RPMI 1640 supplemented with heat inactivated 10% FCS, penicillin, streptomycin, 10 mM sodium pyruvate, 2 mM L-glutamine and 10 mM HEPES.
10^4 of the labeled 4T1 cells were added to varying numbers of purified NK cells (either untreated control NK cells or NK cells treated with specific agent) at ratios of 1:1, 3:1, 6:1, 12:1, 25:1, and 50:1, respectively. NK cells were treated for 18 hours with one of the following TLR activating agents: sBLP (1 μg/ml, Bachem); poly(I:C) (50 μg/ml, Pharmacia); E. coli 055:B5 LPS (phenol extracted, 1 μg/ml, Sigma); Flagellin (1 μg/ml, A. Gewirtz, Emory Univerity); R-848 (5 μg/ml, Invivogen); CpG oligonucleotides (2006 and 2216, 5 μM, Invivogen). The cytotoxicity assays were performed in round bottom 96 well plates, and the samples were incubated in duplicate wells for 4 hours at 37° C., 5% CO2. RPMI 1640 supplemented with heat inactivated 10% FCS, penicillin, streptomycin, 10 mM sodium pyruvate, 2 mM L-glutamine and 10 mM HEPES was used during incubation.
After the 4 hour incubation, supernatants were aspirated from the wells and examined for ^51Cr release using a Gamma counter. The percent specific lysis was calculated as 100× (experimental cpm-spontaneous cpm)/(total cpm-spontaneous cpm). The data are representative of at least three experiments and <5% SD was observed.
A cytotoxicity assay was performed as described in Example 1, except for the following modifications. Purified NK cells were treated with poly(I:C) or R-848 overnight and incubated with 4T1 cells. The role of TNF-alpha, FasL, and Apo2L/TRAIL was evaluated by preincubation of the NK cells with neutralizing antibodies to the respective ligands. The following neutralizing antibodies were added at final concentration of 2 μg/ml: anti-Fas-L (mIgG2b, R&D Systems), anti-TNF-alpha (mIgG1, Genentech), and anti-Apo2L/TRAIL (5C2, mIgG2a, ATCC HB-12258 and 1D1, mIgG2b; ATCC HB-12257). Isotype control antibodies were obtained from BD Biosciences.
(§2) For the cytotoxicity assays, target cells were labeled with 100 mCi ^51Cr for 1 hour at 37° C. and then washed 3 times before use. 10^4 target cells were added to varying numbers of effector cells at the indicated ratios and incubated in duplicate wells for 4 hours at 37° C., 5% CO2, and supernatants were used to determine ^51Cr released using a Gamma counter. The cytotoxicity assays were performed in round bottom 96 well plates and the percent specific lysis was calculated as 100× (experimental cpm-spontaneous cpm)/(total cpm-spontaneous cpm). The role of Apo2L/TRAIL expressed by NK cells in the lysis of target cells was evaluated using anti-Apo2L/TRAIL mAbs (5C2 and 1D1, Genentech, Inc.). Isotype control antibodies were obtained from BD Biosciences.

[3] = tested on: Apo2L/TRAIL mRNA in NK cells; assay: RT-QPCR of Apo2L/TRAIL message in treated NK cells; format: cell-based, human
Experimental: In another experiment, the purified NK cells were treated for 18 hours in RPMI 1640 supplemented with heat inactivated 10% FCS, penicillin, streptomycin, 10 mM sodium pyruvate, 2 mM L-glutamine and 10 mM HEPES with poly(I:C) (50 μg/ml), R-848 (5 μg/ml) or hIFN-alpha (1000 U/ml, Sigma) in the presence or absence of 10 μg/ml cycloheximide and Apo2L/TRAIL was measured in the extracted RNA. RT-PCR was performed and the amount of cDNA was quantitated by RT-QPCR analysis, normalized to RPL19, and fold induction over control is shown in FIG. 2A. Primers were designed as per instructions (Primer Express) and sequences are: hRPL19-probe: […] (SEQ ID NO:7); hRPL19-For: […] (SEQ ID NO:8); hRPL19-Rev: […] (SEQ ID NO:9); hApo2L-probe: […] (SEQ ID NO:10); hApo2L-For: […] (SEQ ID NO:11); hApo2L-Rev: […] (SEQ ID NO:12). cDNA was analyzed for expression of RPL19 and Apo2L/TRAIL by RT-QPCR (Applied Biosystems) as described in Zarember et al., J. Immunol., 168(2):554-61 (2002). Fold increase values are expressed as arbitrary units, relative to the calibrator gene RPL19.

SKMES-1 cells = assay: 51Cr release by SKMES-1 cells incubated with soluble Apo2L/TRAIL; format: cell-based; details: range of concentrations, 4 hours
Experimental: The role of Apo2L/TRAIL was evaluated by preincubation of NK cells with either a neutralizing (5C2) or non-neutralizing (1D1) mAb. The % lysis was plotted, and the results are representative of 3 experiments (less than 5% SD was observed). […] The supernatants were then assessed for Cr release. Similar cytolysis results were obtained in at least 3 experiments.
as §2

HCT116 cells = assay: 51Cr release cytotoxicity assay on HCT116 target cells; format: cell-based
Experimental: (§3) Purified NK cells were treated with poly(I:C) or R-848 and incubated with B16BL10 melanoma cells (ATCC) at the indicated ratios. Purified NK cells stimulated with R-848 were incubated with HCT116 target cells (ATCC) at the indicated ratios. The role of Apo2L/TRAIL in lysis assays in panels B and C was determined by preincubation with neutralizing (5C2) and non-neutralizing (1D1) anti-Apo2L/TRAIL mAbs. The data has been confirmed with NK cells from at least 3 donors and less that 5% SD was observed.
as §2

C57MG = assay: 51Cr release cytotoxicity assay on C57MG cells; format: cell-based, mouse
[4] = tested on: caspase-3 and PARP cleavage in 4T1 cells; assay: Immunoblot for caspase-3 and PARP cleavage in 4T1 cells; format: cell-based, mouse
Experimental: as §1
4T1 cells were treated with Apo2L/TRAIL, resting NK cells (“NK”) or activated NK cells (“Act NK”) separately or in combination. The lysates were analyzed for cleavage of PARP, an indicator of caspase-3 activation. NK cells from multiple donors were utilized and results from one representative donor are shown. […]
Total cell extracts were prepared from 4T1 cells using lysis buffer (0.1 M Tris pH 8.0, 500 mM NaCl, 2 mM EDTA, […], 10% glycerol, supplemented with Complete Protease Inhibitor Cocktail, Roche), and the lysates were clarified by centrifugation at 16,000 rpm for 10 minutes at 4° C. […] Immune complexes were detected using enhanced chemiluminesence (Amersham).

4T1 cells [5] = assay: Clonogenic potential of 4T1 cells; format: cell-based, mouse
Experimental: Since both cell surface Apo2L/TRAIL and perforin granules are essential for lysis of 4T1 cells, assays were conducted to examine if resting NK cells could be “armed” by the addition of soluble Apo-2L/TRAIL protein. There is precedence for membrane bound and soluble forms of TNF family members to display differential behavior upon application to the target cell. With the aim of corroborating the ^51Cr release assays, the clonogenic potential of 4T1 cells was evaluated by treatment with soluble Apo2L/TRAIL and resting NK cells.

B16BL10 melanoma cells = assay: 51Cr release cytotoxicity assay on B16 melanoma target cells; format: cell-based, mouse
Experimental: as §3, §2

[6] = tested on: cell surface Apo2L/TRAIL on NK cells; assay: Flow cytometry of cell surface Apo2L/TRAIL on purified NK cells; format: cell-based, human; details: 5C2-Alexa 488 staining
Experimental: Cell surface Apo2L/TRAIL on purified NK cells treated with poly(I:C), R-848 or hIL-2 (30 ng/ml, BD Biosciences) was also analyzed by cytometry. Isotype control (IgG2a, Sigma) and anti-Apo2L/TRAIL antibody (5C2) were labeled with Alexa 488 (Molecular Probes). 5×10^5 cells were incubated with 2 μg of human IgG to block FcRs and 1 μg of the directly labeled mAbs at 4° C. for 45 minutes, followed by 2 washes. Stained cells were analyzed using a FACScan cytometer (Becton Dickenson) and Cellquest software.

Compound: Cbz-Ala-Ala-Asp-CH2F [GraB inhibitor]
- Effect of inhibitor treatment of activated NK cells on lysis of 4T1 cells (4T1 cells [1]): reduction in lysis

Compound: Flagellin
- Lysis of 4T1 cells by NK cells treated with TLR activating agent (4T1 cells [2]): neither BLP, LPS, Flagellin, nor the CpG oligonucleotides induced cytotoxic activity

Compound: C[C@@H]1C[C@@H]([C@H](O)CC2CC(=O)NC(=O)C2)C(=O)[C@@H](C)C1 [cycloheximide]
- Effect of protein synthesis inhibitor on induction of Apo2L/TRAIL message in stimulated NK cells ([3]; 10 μg/ml cycloheximide, poly(I:C), R-848 or IFN-alpha stimulated): not blocked

Compound: C/C=C/[C@H]1O[C@@](O)([C@@H](C)[C@H](O)[C@H](C)[C@H]2OC(=O)/C(OC)=C/C(C)=C/[C@@H](C)[C@@H](O)[C@@H](CC)[C@@H](O)[C@H](C)C/C(C)=C/C=C/[C@@H]2OC)C[C@@H](O[C@H]2C[C@@H](O)[C@H](OC(N)=O)[C@@H](C)O2)[C@@H]1C [Concanamycin A]
- Effect of inhibitor treatment of activated NK cells on lysis of 4T1 cells (4T1 cells [1]): blocked the cytotoxic activity

Compound: Apo2L/TRAIL: recombinant Apo2L/TRAIL (amino acids 114-281), prepared as in Ashkenazi et al. 1999
- 51Cr release by SKMES-1 cells, Apo2L/TRAIL alone (SKMES-1 cells): effectively mediated release
- Cytotoxic effect on HCT116 cells, Apo2L/TRAIL with limiting ratios of resting NK cells (HCT116 cells; 5 ng/ml Apo2L/TRAIL plus resting NK cells): enhanced cytotoxic effect
- Lysis of HCT116 cells by Apo2L/TRAIL alone (HCT116 cells; 5 ng/ml Apo2L/TRAIL, no NK cells): no lysis
- 51Cr release by HCT-116 cells, Apo2L/TRAIL alone (HCT116 cells; range of concentrations, 4 hours): effectively mediated release
- Lysis of C57MG cells, Apo2L/TRAIL added to activated NK cells (C57MG; plus activated NK cells): no significant increase
- Lysis of C57MG cells, Apo2L/TRAIL added to resting NK cells (C57MG; plus resting NK cells): increased the lysis observed
- Lysis of 4T1 cells, Apo2L/TRAIL with resting NK cells (4T1 cells [2]; increasing concentrations of Apo2L/TRAIL plus resting NK cells): dose dependent lysis
- Lysis of 4T1 cells, Apo2L/TRAIL added to activated NK cells (4T1 cells [2]; plus activated NK cells): Some increase
- Lysis of 4T1 cells by Apo2L/TRAIL protein alone (4T1 cells [2]; range of concentrations, up to 2 μg/ml, no NK cells): resistant to lysis; also recorded: certain resistance
- Cleavage of pro-caspase-3 and PARP in 4T1 cells, Apo2L/TRAIL alone ([4]; 100 ng/ml, 30 minutes, 1 hour or 4 hours): did not result in cleavage
- PARP cleavage in 4T1 cells, resting NK cells along with soluble Apo2L/TRAIL ([4]; combined treatment): production of cleaved PARP
- Clones of 4T1 cells, simultaneous soluble Apo2L/TRAIL and resting NK cells (4T1 cells [5]; NK cells at ratio 25 to 1, after 5 days): dramatic reduction in clones
- Clonogenic capacity of 4T1 cells, soluble Apo2L/TRAIL alone (4T1 cells [5]; individual treatment): not affected in terms of clonogenic capacity
- Lysis of B16BL10 cells, Apo2L/TRAIL added to activated NK cells (B16BL10 melanoma cells; plus activated NK cells): no significant increase
- Lysis of B16BL10 cells, Apo2L/TRAIL added to resting NK cells (B16BL10 melanoma cells; plus resting NK cells): increased the lysis observed
- Apoptotic effect of Apo2L/TRAIL protein alone on B16 cells (B16BL10 melanoma cells; range of concentrations, no NK cells): certain resistance

Compound: CCOCc1nc2c(N)nc3ccccc3c2n1CC(C)(C)O [R-848]
- Cytotoxicity of stimulated NK cells towards HCT116 cells (HCT116 cells; NK cells stimulated with agent): increased cytoxicity
- Increase of Apo2L/TRAIL mRNA over control ([3]; NK cells treated 18 hours, normalized to RPL19): 25 fold
- Cell surface expression of Apo2L/TRAIL on NK cells [6]: detectable cell surface expression
- Lysis of 4T1 cells by NK cells treated with TLR activating agent (4T1 cells [2]): efficiently killed
- Killing of B16 melanoma cells by stimulated NK cells (B16BL10 melanoma cells; NK cells stimulated with agent): efficiently killed

Reference: patent US20080199423A1, “Methods of Using Apo2l Receptor Agonists and Ink Cell Activators” (GENENTECH, INC., priority 2004, published 2008)
